What was measured:
ST14 = assay: TMT proteomics MM1s cells: ST14 abundance; details: 5 h vs DMSO, lenalidomide 5 µM
[1] = system: IMiD-dependent neo-substrates; assay: TMT proteomics profiling of IMiD-dependent neo-substrates (hESC, Kelly, SK-N-DZ, MM1s); format: cell-based, human; details: for number of substrates identified (rank order): H9 hESC proteomics; for substrates robustly degraded (each drug in addition to the preceding one): proteomics across hESC, MM1s, Kelly, SK-N-DZ cells
From the text: (§1) We established a mass spectrometry-based workflow (Figure 1—figure supplement 1A) to detect IMiD-induced protein degradation in hESC.
(§2) Proteins were precipitated using methanol/chloroform.

DYNC1H1 = assay: TMT proteomics Kelly cells: DYNC1H1 abundance; details: 5 h vs DMSO, lenalidomide 5 µM
OGDH = assay: TMT proteomics MM1s cells: OGDH abundance; details: 5 h vs DMSO, lenalidomide 5 µM
HNRNPH1 = assay: TMT proteomics H9 hESC: HNRNPH1 abundance; format: cell-based, human; details: H9 hES cells, 5 h vs DMSO; lenalidomide 5 µM
From the text: as §1, §2

[2] = 2013, cited from earlier work
PPA1 = assay: TMT proteomics H9 hESC: PPA1 abundance; format: cell-based, human; details: H9 hES cells, 5 h vs DMSO; thalidomide 10 µM, lenalidomide 5 µM
From the text: as §1, §2

HADHA = assay: TMT proteomics MM1s cells: HADHA abundance; details: 5 h vs DMSO, lenalidomide 5 µM
Flag-hsSALL4^WT = Flag-hsSALL4^WT (Homo sapiens, UniProt Q9UJQ4); assay: Western blot of transfected Flag-hsSALL4 WT in Kelly cells; format: cell-based; details: 24 h
Procedure: (§3) For transient transfection, 0.2 million cells were seeded per well in a 12 well plate on day 1. On day 2, cells were transfected with 200–300 ng of plasmid (pNTM-Flag containing gene of interest) using 2 µL of lipofectamine 2000 transfection reagent (Invitrogen). On day 3, the desired concentration of IMiD was added to each well and cells were harvested after 24 h for western blot analysis using the protocol described above.

ZNF692 = ZNF692 (Homo sapiens, UniProt Q96SW2+Q9BU19); assay: TMT proteomics Kelly cells: ZNF692 abundance; details: 5 h vs DMSO, thalidomide 10 µM, lenalidomide 5 µM, pomalidomide 1 µM
CYR61 = assay: TMT proteomics H9 hESC: CYR61 abundance; format: cell-based, human; details: H9 hES cells, 5 h vs DMSO; thalidomide 10 µM
From the text: as §1, §2

[3] = molecular target: Flag-mmSALL4 containing a humanized ZnF2 (Y415F, P418S, I419V, L430F, Q435H) (UniProt Q8BX22+Q96SW2, I419V/L434F/P418S/Q435H/Y415F); assay: Western blot of Flag-mmSALL4 with humanized ZnF2 in Kelly cells; format: cell-based, mouse; details: thalidomide, 24 h
Procedure: as §3

ZFP91 [4] = molecular target: T1, ZFP91 (Homo sapiens, UniProt Q96JP5+Q96SW2); assay: TMT proteomics MM1s cells: ZFP91 abundance; details: 5 h vs DMSO, thalidomide 10 µM, lenalidomide 5 µM, pomalidomide 1 µM
chicken embryos = system: chicken embryos; parameters: method as in Ito et al., 2010; details: direct application to the limb buds, ref Ito et al., 2010; cited from earlier work
SALL4 [5] = molecular target: T2, SALL4 (Homo sapiens, UniProt Q9UJQ4); assay: Western blot of SALL4 in H9 hESC; format: cell-based; parameters: endogenous in cells; host or cells: Kelly, H9 hESC, SK-N-DZ cells; details: increasing doses, 24 h
RPS17; RPS17L = assay: TMT proteomics H9 hESC: RPS17 abundance; format: cell-based, human; details: H9 hES cells, 5 h vs DMSO; thalidomide 10 µM
From the text: as §1, §2

VRTN = molecular target: T3, VRTN (Homo sapiens, UniProt Q9H8Y1); assay: TMT proteomics H9 hESC: VRTN abundance; format: cell-based; details: H9 hES cells, 5 h vs DMSO; thalidomide 10 µM, pomalidomide 1 µM
T3 construct: endogenous in cells; host or cells: H9 hESC
From the text: as §1, §2

ZFP91 [6] = molecular target: T1, ZFP91; assay: TMT proteomics Kelly cells: ZFP91 abundance; details: 5 h vs DMSO, thalidomide 10 µM, lenalidomide 5 µM, pomalidomide 1 µM
RAB28 = RAB28 (Homo sapiens, UniProt P51157); assay: TMT proteomics MM1s cells: RAB28 abundance; details: 5 h vs DMSO, thalidomide 10 µM, lenalidomide 5 µM, pomalidomide 1 µM
IKZF3 = IKZF3 (Homo sapiens, UniProt Q96SW2+Q9UKT9); assay: TMT proteomics MM1s cells: IKZF3 abundance; details: 5 h vs DMSO, thalidomide 10 µM, lenalidomide 5 µM, pomalidomide 1 µM
[7] = system: Flag-hsSALL4^G416A, Flag-hsSALL4^G416N; assay: Western blot of transfected Flag-hsSALL4 G416A/G416N in Kelly cells; format: cell-based, human; details: thalidomide, 24 h
Procedure: as §3

SALL4 [8] = molecular target: T2, SALL4; assay: Western blot of SALL4 in Kelly, SK-N-DZ, HEK293T and H661 cells; details: increasing concentrations, 24 h
SALL4 [9] = assay: Western blot of SALL4 in CRBN-/- Kelly and HEK293T cells; format: cell-based, human; details: increasing concentrations, 24 h
SALL4 [10] = molecular target: T2, SALL4; assay: TMT proteomics H9 hESC: SALL4 abundance; format: cell-based; details: H9 hES cells, 5 h vs DMSO; thalidomide 10 µM, lenalidomide 5 µM, pomalidomide 1 µM
From the text: as §1, §2

SALL4 [11] = molecular target: T2, SALL4; assay: TMT proteomics Kelly cells: SALL4 abundance; details: 5 h vs DMSO, thalidomide 10 µM, lenalidomide 5 µM, pomalidomide 1 µM
ZNF827 = ZNF827 (Homo sapiens, UniProt Q17R98+Q96SW2); assay: TMT proteomics Kelly cells: ZNF827 abundance; details: 5 h vs DMSO, thalidomide 10 µM, lenalidomide 5 µM, pomalidomide 1 µM
[12] = molecular target: hsSALL4ZnF2 / DDB1∆B-CRBN (Homo sapiens, UniProt Q96SW2+Q9UJQ4); assay: TR-FRET IMiD-dependent binding of SALL4ZnF2 to CRBN; details: DDB1∆B-CRBN 200 nM, hsSALL4ZnF2 100 nM
From the text: The TR-FRET signal of each data point was extracted by calculating the 520/490 nm ratios.

SALL4 mRNA = assay: Quantitative RT-PCR of total SALL4 mRNA in H9 hES cells; format: cell-based, human; details: 10 µM thalidomide, 24 h vs DMSO
Procedure: RNA was isolated using the RNeasy Plus mini kit (Qiagen) and cDNA created by reverse transcription using ProtoScript II reverse transcriptase (NEB) following the manufacturer’s instructions. The following primer sets from IDT were used with SYBR Green Master Mix (Applied Biosystems) to probe both GAPDH and total SALL4 levels:
Analysis was performed on a CFX Connect Real-Time PCR System (Bio-Rad) in a white 96-well PCR plate. Relative expression levels were calculated using the ΔΔCT method.

IKZF1 = IKZF1 (Homo sapiens, UniProt Q13422+Q96SW2); assay: TMT proteomics MM1s cells: IKZF1 abundance; details: 5 h vs DMSO, thalidomide 10 µM, lenalidomide 5 µM, pomalidomide 1 µM
mmSALL4 = molecular target: T4, mmSALL4 (Mus musculus, UniProt Q8BX22); assay: Western blot of mmSALL4 in mouse embryonic stem cells; format: cell-based; details: increasing concentrations, 24 h
T4 construct: endogenous in cells; host or cells: TC1 mouse embryonic stem cells

ACAD9 = assay: TMT proteomics Kelly cells: ACAD9 abundance; format: cell-based, human; details: 5 h vs DMSO, thalidomide 10 µM
From the text: as §2

PPP3R1 = assay: TMT proteomics MM1s cells: PPP3R1 abundance; format: cell-based, human; details: 5 h vs DMSO, thalidomide 10 µM
From the text: as §2

[13] = system: Flag-hsSALL4^G600A, hsSALL4^G600N; assay: Western blot of transfected Flag-hsSALL4 G600A/G600N in Kelly cells; format: cell-based, human; details: thalidomide, 24 h
Procedure: as §3

zebrafish embryos = system: zebrafish embryos; parameters: method as in Ito et al., 2010; details: ref Ito et al., 2010; cited from earlier work

Chain of Flag-hsSALL4^WT (Q9UJQ4 whole entry): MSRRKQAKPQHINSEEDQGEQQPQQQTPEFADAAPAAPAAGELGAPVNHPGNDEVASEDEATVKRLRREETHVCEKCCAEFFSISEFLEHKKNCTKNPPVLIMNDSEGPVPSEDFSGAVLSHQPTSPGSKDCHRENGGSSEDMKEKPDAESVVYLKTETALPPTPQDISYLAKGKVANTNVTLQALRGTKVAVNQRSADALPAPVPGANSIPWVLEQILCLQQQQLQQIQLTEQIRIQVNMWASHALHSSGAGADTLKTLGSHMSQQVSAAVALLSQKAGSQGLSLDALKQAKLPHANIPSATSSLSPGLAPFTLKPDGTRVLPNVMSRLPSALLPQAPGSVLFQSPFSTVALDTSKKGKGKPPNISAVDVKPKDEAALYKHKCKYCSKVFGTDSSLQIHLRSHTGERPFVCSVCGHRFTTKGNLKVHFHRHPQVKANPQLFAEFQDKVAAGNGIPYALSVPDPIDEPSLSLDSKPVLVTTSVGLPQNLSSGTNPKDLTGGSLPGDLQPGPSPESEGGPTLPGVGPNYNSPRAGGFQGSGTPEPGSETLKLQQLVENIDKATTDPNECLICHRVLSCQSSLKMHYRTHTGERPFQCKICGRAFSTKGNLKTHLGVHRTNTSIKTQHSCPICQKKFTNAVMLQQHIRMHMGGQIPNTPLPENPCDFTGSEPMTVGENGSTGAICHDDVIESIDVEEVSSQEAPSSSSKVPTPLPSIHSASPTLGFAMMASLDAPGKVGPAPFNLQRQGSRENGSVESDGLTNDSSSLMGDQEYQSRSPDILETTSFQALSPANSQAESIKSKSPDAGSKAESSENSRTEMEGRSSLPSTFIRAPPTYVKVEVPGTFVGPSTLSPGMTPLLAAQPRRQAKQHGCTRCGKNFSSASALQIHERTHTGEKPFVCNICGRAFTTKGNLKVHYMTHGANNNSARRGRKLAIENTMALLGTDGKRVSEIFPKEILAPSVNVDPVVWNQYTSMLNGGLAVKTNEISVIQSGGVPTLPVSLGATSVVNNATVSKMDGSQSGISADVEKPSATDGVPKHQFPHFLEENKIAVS
T3 sequence (Q9H8Y1 whole entry): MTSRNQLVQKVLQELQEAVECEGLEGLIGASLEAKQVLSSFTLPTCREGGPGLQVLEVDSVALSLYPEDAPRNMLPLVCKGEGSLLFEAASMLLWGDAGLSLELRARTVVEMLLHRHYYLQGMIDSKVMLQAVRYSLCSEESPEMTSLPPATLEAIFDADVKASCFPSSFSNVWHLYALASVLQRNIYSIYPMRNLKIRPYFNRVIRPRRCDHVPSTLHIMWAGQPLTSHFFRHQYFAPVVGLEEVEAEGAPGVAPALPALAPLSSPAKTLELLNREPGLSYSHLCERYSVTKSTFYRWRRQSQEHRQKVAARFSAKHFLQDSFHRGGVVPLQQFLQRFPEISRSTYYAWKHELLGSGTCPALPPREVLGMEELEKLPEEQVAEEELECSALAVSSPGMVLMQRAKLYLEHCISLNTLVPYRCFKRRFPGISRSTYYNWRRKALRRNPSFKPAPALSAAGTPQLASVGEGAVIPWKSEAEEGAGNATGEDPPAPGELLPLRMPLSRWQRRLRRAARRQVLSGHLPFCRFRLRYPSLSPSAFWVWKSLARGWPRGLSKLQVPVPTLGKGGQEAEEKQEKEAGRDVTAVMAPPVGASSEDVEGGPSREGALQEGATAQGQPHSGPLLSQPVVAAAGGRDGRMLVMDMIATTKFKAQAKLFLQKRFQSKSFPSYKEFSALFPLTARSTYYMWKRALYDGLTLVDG
T4 sequence (Q8BX22 whole entry): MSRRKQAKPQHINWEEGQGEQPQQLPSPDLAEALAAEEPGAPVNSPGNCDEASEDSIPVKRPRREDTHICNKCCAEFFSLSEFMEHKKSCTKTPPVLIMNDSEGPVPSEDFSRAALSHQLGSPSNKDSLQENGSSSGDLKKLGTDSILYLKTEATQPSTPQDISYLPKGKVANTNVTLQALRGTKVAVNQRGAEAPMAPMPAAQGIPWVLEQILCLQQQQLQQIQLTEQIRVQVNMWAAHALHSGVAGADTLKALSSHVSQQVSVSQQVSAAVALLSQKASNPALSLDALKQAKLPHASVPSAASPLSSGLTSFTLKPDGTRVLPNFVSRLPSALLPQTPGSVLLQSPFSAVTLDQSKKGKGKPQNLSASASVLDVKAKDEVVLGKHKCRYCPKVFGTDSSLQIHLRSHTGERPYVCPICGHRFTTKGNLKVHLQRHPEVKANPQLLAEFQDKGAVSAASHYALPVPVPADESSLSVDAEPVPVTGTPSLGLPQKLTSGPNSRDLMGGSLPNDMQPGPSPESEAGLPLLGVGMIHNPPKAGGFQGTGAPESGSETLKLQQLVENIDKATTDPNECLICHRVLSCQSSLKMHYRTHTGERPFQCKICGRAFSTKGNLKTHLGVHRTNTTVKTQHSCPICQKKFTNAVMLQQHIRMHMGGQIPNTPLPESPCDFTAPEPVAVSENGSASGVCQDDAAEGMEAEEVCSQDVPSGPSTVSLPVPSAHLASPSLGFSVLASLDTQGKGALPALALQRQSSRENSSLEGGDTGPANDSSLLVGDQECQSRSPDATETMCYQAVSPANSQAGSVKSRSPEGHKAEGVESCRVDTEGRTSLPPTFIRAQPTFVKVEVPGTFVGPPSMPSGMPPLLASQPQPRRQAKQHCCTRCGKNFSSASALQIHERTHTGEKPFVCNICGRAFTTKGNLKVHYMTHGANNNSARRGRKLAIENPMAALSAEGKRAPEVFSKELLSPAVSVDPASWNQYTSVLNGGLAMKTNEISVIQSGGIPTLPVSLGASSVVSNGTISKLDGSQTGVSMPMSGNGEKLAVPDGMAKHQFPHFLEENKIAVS

With `Nc1cccc2c1CN(C1CCC(=O)NC1=O)C2=O` (stereo not drawn) [lenalidomide] the “logFC ST14” value (ST14) was -0.1872, the “number of substrates identified (rank order)” value [1] was “Thal < Len << Pom” and the “proteins degraded upon treatment (besides SALL4)” value ([1]; H9 hESC, 5 h, 5 µM lenalidomide, 1 µM pomalidomide) was “CSNK1A1”. The “substrates robustly degraded (each drug in addition to the preceding one)” value [1] was “ZNF827, FAM83F, and RAB28 along with the lenalidomide-specific substrate CSNK1A1”, the “logFC DYNC1H1” value (DYNC1H1) was 0.04048 and the “logFC OGDH” value (OGDH) was 0.1359. The “logFC HNRNPH1” value (HNRNPH1) was 0.1553, the “plasma half-life (t1/2)” value ([2]; typical dose 200–400 mg thalidomide, 25 mg lenalidomide, 2 mg pomalidomide, ref Chen et al., 2017, Hoffmann et al., Teo et al., 2004) was ~ 3 h and the “logFC PPA1” value (PPA1) was -0.1919. For the same compound, the “logFC HADHA” value (HADHA) was 0.1826.
In the case of `O=C1CCC(N2C(=O)c3ccccc3C2=O)C(=O)N1` (stereo not drawn) [thalidomide], the “degradation of ectopically expressed Flag-hsSALL4 wild type” value (Flag-hsSALL4^WT) is reported as “readily degraded”, the “logFC ZNF692” value (ZNF692) is reported as -2.248 and the “logFC CYR61” value (CYR61) is reported as 0.4402. For the same compound, the “degradation of mmSALL4 with humanized ZnF2 domain” value [3] was “induce thalidomide-mediated mouse SALL4 degradation”, the “logFC ZFP91” value (ZFP91 [4]) was -0.6875 and the “dose found to be teratogenic” value (chicken embryos) was 400 µM. For the same compound, the “SALL4 protein levels (western blot)” value (SALL4 [5]) was “dose-dependent decrease in protein levels”, the “logFC RPS17; RPS17L” value (RPS17; RPS17L) was -0.1321 and the “logFC VRTN” value (VRTN) was -0.4098. The “logFC ZFP91” value (ZFP91 [6]) was -0.2749, the “logFC RAB28” value (RAB28) was -0.4948 and the “logFC IKZF3” value (IKZF3) was -0.3448. For the same compound, the “degradation of Flag-SALL4 with G416A or G416N mutations in ZnF2” value [7] was “rendered SALL4 stable”, the “SALL4 protein levels (western blot)” value (SALL4 [8]) was “dose-dependent decrease in SALL4 protein levels” and the “SALL4 degradation in CRBN-/- cells” value (SALL4 [9]) was “no degradation of SALL4 was observed”. For the same compound, the “logFC SALL4” value (SALL4 [10]) was -1.582, the “logFC SALL4” value (SALL4 [11]) was -1.628 and the “logFC ZNF827” value (ZNF827) was -0.4132. For the same compound, the “number of substrates identified (rank order)” value [1] was “Thal < Len << Pom”, the “substrates robustly degraded (each drug in addition to the preceding one)” value [1] was “ZNF692, SALL4, and the ubiquitin ligase RNF166” and the “rank order in binding observed with ZnF2” value [12] was “Pom >Thal >> Len”. The “SALL4 mRNA level (qPCR, normalized to GAPDH)” value (SALL4 mRNA) was “upregulates SALL4 mRNA”, the “SALL4 mRNA level (qPCR, normalized to GAPDH)” value (SALL4 mRNA; listed as Thalidomide) was “did not influence the expression of SALL4 mRNA” and the “logFC IKZF1” value (IKZF1) was -0.3052. The “degradation of mmSALL4 in mESC” value (mmSALL4) was “does not promote degradation of mmSALL4”, the “logFC ACAD9” value (ACAD9) was 0.09357 and the “logFC PPP3R1” value (PPP3R1) was -0.2263. For the same compound, the “degradation of Flag-SALL4 with G600A or G600N mutations in ZnF4” value [13] was “readily degraded”, the “plasma concentration in humans” value ([2]; ref Bai et al., Dahut et al., 2009) was ≤ 10 µM and the Cmax ([2]; typical dose 200–400 mg thalidomide, 25 mg lenalidomide, 2 mg pomalidomide, ref Chen et al., 2017, Hoffmann et al., Teo et al., 2004, read-out: maximum plasma concentration (Cmax)) was 5 to 10 µM. For the same compound, the “dose found to be teratogenic” value (zebrafish embryos) was 400 µM and the “logFC PPA1” value (PPA1) was -0.1282.

Reference: article PMC6156078, “Thalidomide promotes degradation of SALL4, a transcription factor implicated in Duane Radial Ray syndrome” (eLife, 2018)
